Data reported in US20150218212A1, “FLUORINATED EPOXYKETONE-BASED TETRAPEPTIDE COMPOUNDS AND USES THEREOF AS PROTEASOME INHIBITORS” (FLUORINOV PHARMA INC., priority 2012, published 2015).
Where two headings read alike, the source gives them in different places.

Key:
[1] = target: T1, proteasome Chymotrypsin-like (CT-L) activity (Mus musculus, UniProt O09061+O55234); assay: Pharmacodynamic proteasome activity in murine red blood cells, CT-L; format: in vivo, NOD/SCID mice; details: iv, mice, 2 mg/kg i.v.
T1 construct: RBCs were lysed with assay lysis buffer and incubated on ice for 30 minutes; from tissue; host or cells: red blood cells of NOD/SCID mice
Description: Cells were harvested by centrifugation at 1,200 rpm at room temperature. Cell pellets were washed with PBS (phosphate buffered saline) and lysed with assay lysis buffer (50 mM HEPES (N-2-hydroxyethylpiperazine-N′-2-ethanesulfonic acid), pH 7.5; 150 mM NaCl; 1% Triton X-100; 2 mM ATP). Cell lysates were incubated on ice for 30 minutes, mixed by vortex every 5 minutes, and then centrifuged at 12,000 g for 10 minutes. The supernatant was transferred to a 96-well plate. For each assay, 10 μg of total protein were incubated for 1 hour at 37° C. with increasing concentrations (1 nM to 10 μM) of test compound diluted in assay buffer (50 mM tris-HCl (tris(hydroxymethyl)aminomethane-HCl), pH 7.5; 150 mM NaCl). DMSO alone was used as a control in every assay plate. After incubation, a specific fluorogenic proteasome substrate was added to each assay reaction at a final concentration of 40 μM in a total volume of 100 μL. N-Succinyl-Leu-Leu-Val-Tyr-7-amino-4-methylcoumarin (Suc-Leu-Leu-Val-Tyr-AMC) was used for measuring chymotrypsin-like (CT-L) activity, t-butoxycarbonyl-Leu-Arg-Arg-7-amino-4-methylcoumarin (Boc-Leu-Arg-Arg-AMC) for trypsin-like (T-L) activity, and benzyloxycarbonyl-L-leucyl-L-leucyl-L-glutamyl-7-amino-4-methylcoumarin (Z-Leu-Leu-Glu-AMC) for caspase-like (C-L) activity. The excitation wavelength was set at 360 nm and the fluorescence emission wavelength of AMC was detected at 460 nm. The fluorescence of free AMC released during the enzymatic reaction was measured with a SpectraMax M5 fluorescent spectrophotometric plate reader (Molecular Devices, Sunnyvale, Calif.). AMC release rate was measured at 37° C. in a kinetic mode, recording every 5 minutes for 30 minutes. Experiments were performed in triplicate and repeated at least twice.
All mouse experiments were performed in accordance with approval from the Ontario Cancer Institute institutional animal review board. Five- to six-week-old male non-obese diabetic/severe combined immunodeficient (NOD/SCID) mice were grouped randomly (n=3 mice per group). Mice were administered vehicle (5% DMSO, 20% Cremophor) or compounds of Formula I at different doses either intravenously or by oral gavage, and venous blood samples (20-50 μL) were collected from each mouse over 24 hours. Blood samples were mixed with heparin (APP Pharmaceuticals; Schaumburg, Ill.) in 0.5 mL tubes in accordance with the manufacturer's instructions. After centrifugal separation at 3,000 g for 10 minutes, red blood cells (RBCs) in the bottom layer were transferred into a new tube and stored at −70° C. until use. RBCs were lysed with assay lysis buffer and incubated on ice for 30 minutes, mixing by vortex every 5 minutes, and then centrifuged at 12,000 g for 10 minutes. The supernatant was transferred to a 96-well plate and proteasome activity was measured as described above for tumor cell lysates.
Proteasome subunit activity (Chymotrypsin-like, Trypsin-like, Caspase-like, CT-L, T-L, C-L, respectively) were monitored over the course of 24 hrs following […] administration of representative compounds of Formula I. NOD/SCID mice were treated with compounds of Formula I (2 mg/kg by iv administration) or vehicle control and carfilzomib for up to 24 hours, as described above. Table 9 summarizes the data on pharmacodynamic activity of representative compounds of Formula I following a dose of 2 mg/kg intravenous (i.v) administration to mice. Data are presented as mean residual activity (SEM) relative to vehicle treated controls.

[2] = system: HCT-15; assay: NCI screening panel, HCT-15 (Colon Cancer); format: cell-based, human
Description: Representative compounds of Formula I were screened using the National Cancer Institute (NCI) screening panel, which consists of a panel of human tumor cell lines, representing leukemia, melanoma, and cancers of the lung, colon, ovary, breast, prostate and renal system.
After 24 h, two plates of each cell line are fixed in situ with TCA, to represent a measurement of the cell population for each cell line at the time of drug addition (Tz). Experimental drugs are solubilised in dimethyl sulfoxide at 400-fold the desired final maximum test concentration and stored frozen prior to use. At the time of drug addition, an aliquot of frozen concentrate is thawed and diluted to twice the desired final maximum test concentration with complete medium containing 50 μg/mL gentamicin. Additional four, 10-fold or ½ log serial dilutions are made to provide a total of five drug concentrations plus control. Aliquots of 100 μl of these different drug dilutions are added to the appropriate microtiter wells already containing 100 μl of medium, resulting in the required final drug concentrations.
Following drug addition, the plates are incubated for an additional 48 h at 37° C., 5% CO2, 95% air, and 100% relative humidity. For adherent cells, the assay is terminated by the addition of cold TCA (trichloroacetic acid). Cells are fixed in situ by the gentle addition of 50 μl of cold 50% (w/v) TCA (final concentration, 10% TCA) and incubated for 60 minutes at 4° C. The supernatant is discarded, and the plates are washed five times with tap water and air dried. Sulforhodamine B (SRB) solution (100 μl) at 0.4% (w/v) in 1% acetic acid is added to each well, and plates are incubated for 10 minutes at room temperature. After staining, unbound dye is removed by washing five times with 1% acetic acid and the plates are air dried. Bound stain is subsequently solubilised with 10 mM trizma base, and the absorbance is read on an automated plate reader at a wavelength of 515 nm. For suspension cells, the methodology is the same except that the assay is terminated by fixing settled cells at the bottom of the wells by gently adding 50 μl of 80% TCA (final concentration, 16% TCA). Using the seven absorbance measurements [time zero, (Tz), control growth, (C), and test growth in the presence of drug at the five concentration levels (Ti)], the percentage growth is calculated at each of the drug concentrations levels. Percentage growth inhibition is calculated as: [(Ti−Tz)/(C−Tz)]×100 for concentrations for which Ti>/=Tz and [(Ti−Tz)/Tz]×100 for concentrations for which Ti<Tz.
Three dose response parameters are calculated for each experimental agent. Growth inhibition of 50% (GI50) is calculated from [(Ti−Tz)/(C−Tz)]×100=50, which is the drug concentration resulting in a 50% reduction in the net protein increase (as measured by SRB staining) in control cells during the drug incubation. The drug concentration resulting in total growth inhibition (TGI) is calculated from Ti=Tz. The LC50 (concentration of drug resulting in a 50% reduction in the measured protein at the end of the drug treatment as compared to that at the beginning) indicating a net loss of cells following treatment is calculated from [(Ti−Tz)/Tz]×100=−50. Values are calculated for each of these three parameters if the level of activity is reached. However, if the effect is not reached or is exceeded, the value for that parameter is expressed as greater or less than the maximum or minimum concentration tested.

[3] = 30 min, read-out: Chymotrypsin-like (CT-L) mean residual activity relative to vehicle treated controls
[4] = 24 hrs, read-out: Chymotrypsin-like (CT-L) mean residual activity relative to vehicle treated controls
[5] = time 0, read-out: Chymotrypsin-like (CT-L) mean residual activity relative to vehicle treated controls

SMILES | remaining activity at 2 mg/kg [1, 3] | remaining activity at 2 mg/kg [1, 4] | remaining activity at 2 mg/kg [1, 5] | Log10GI50 [2] | Log10LC50 [2] | Log10TGI50 [2]
CC(C)C[C@H](NC(=O)[C@H](COC(F)F)NC(=O)CN1CCOCC1)C(=O)N[C@@H](COC(F)F)C(=O)N[C@@H](CC(C)C)C(=O)[C@@]1(C)CO1 [Example 1, (2S)—N-[(1S)-1-(difluoromethoxymethyl)-2-[[(1S)-3-methyl-1-[(2R)-2-methyloxirane-2-carbonyl]butyl]amino]-2-oxo-ethyl]-2-[[(2S)-3-(difluoromethoxy)-2-[(2-morpholinoacetyl)amino]propanoyl]amino]-4-methyl-pentanamide] | 20% | 21% | 100% | −5.97 | >−4.00 | >−4.00
CC(C)C[C@H](NC(=O)[C@H](COC(F)F)NC(=O)CN1CCOCC1)C(=O)N[C@@H](Cc1ccccc1)C(=O)N[C@@H](CC(C)C)C(=O)[C@@]1(C)CO1 [Example 2, (2S)-N-[(1S)-1-benzyl-2-[[(1S)-3-methyl-1-[(2R)-2-methyloxirane-2-carbonyl]butyl]-amino]-2-oxo-ethyl]-2-[[(2S)-3-(difluoromethoxy)-2-[(2-morpholinoacetyl)amino]propanoyl]amino]-4-methyl-pentanamide] | 29% | 24% | 100% | −6.40 | >−4.00 | −4.66
CC(C)C[C@H](NC(=O)[C@H](COC(F)F)NC(=O)CN1CCOCC1)C(=O)N[C@@H](Cc1ccccc1)C(=O)N[C@@H](Cc1ccccc1)C(=O)[C@@]1(C)CO1 [Example 3, (2S)-N-[(1S)-1-benzyl-2-[[(1S)-1-benzyl-2-[(2R)-2-methyloxiran-2-yl]-2-oxo-ethyl]amino]-2-oxo-ethyl]-2-[[(2S)-3-(difluoromethoxy)-2-[(2-morpholinoacetyl)-amino]propanoyl]amino]-4-methyl-pentan-amide] | 29% | 31% | 100% | −6.51 | >−4.00 | >−4.00
CC(C)C[C@H](NC(=O)[C@H](COC(F)F)NC(=O)CN1CCOCC1)C(=O)N[C@@H](COC(F)F)C(=O)N[C@@H](Cc1ccccc1)C(=O)[C@@]1(C)CO1 [Example 4, (2S)-N-[(1S)-2-[[(1S)-1-benzyl-2-[(2R)-2-methyloxiran-2-yl]-2-oxo-ethyl]amino]-1-(difluoromethoxymethyl)-2-oxo-ethyl]-2-[[(2S)-3-(difluoromethoxy)-2-[(2-mor-pholinoacetyl)amino]propanoyl]amino]-4 methyl-pentanamide] | 34% | 37% | 100% | −5.91 | >−4.00 | −4.62
CC(C)C[C@H](NC(=O)[C@H](COC(F)F)NC(=O)[C@H](COC(F)F)NC(=O)[C@H](CCc1ccccc1)NC(=O)CN1CCOCC1)C(=O)[C@@]1(C)CO1 [Example 7, (2S)-N-[(1S)-1-(difluoromethoxymethyl)-2-[[(1S)-1-(difluoromethoxymethyl)-2-[[(1S)-3-methyl-1-[(2R)-2-methyloxirane-2-carbo-nyl]butyl]amino]-2-oxo-ethyl]amino]-2-oxo-ethyl]-2-[(2-morpholinoacetyl)amino]-4-phenyl-butanamide] | 35% | 30% | 100% | −5.89 | >−4.00 | >−4.00
CC(C)C[C@H](NC(=O)[C@H](Cc1ccccc1)NC(=O)[C@H](COC(F)F)NC(=O)[C@H](COC(F)F)NC(=O)CN1CCOCC1)C(=O)[C@@]1(C)CO1 [Example 11, (2S)-2-[[(2S)-3-(difluoromethoxy)-2-[[(2S)-3-(difluoromethoxy)-2-[(2-morpholinoacetyl)-amino]propanoyl]amino]propanoyl]amino]-N-[(1S)-3-methyl-1-[(2R)-2-methyloxirane-2-carbonyl]butyl]-3-phenyl-propanamide] | 30% | 28% | 100% | −6.00 | >−4.00 | −4.42
CC(C)C[C@H](NC(=O)[C@H](COC(F)F)NC(=O)[C@H](COC(F)F)NC(=O)[C@H](COC(F)F)NC(=O)CN1CCOCC1)C(=O)[C@@]1(C)CO1 [Example 17, (2S)-3-(difluoromethoxy)-N-[(1S)-1-(difluoromethoxymethyl)-2-[[(1S)-1-(difluoro-methoxymethyl)-2-[[(1S)-3-methyl-1-[(2R)-2-methyloxirane-2-carbonyl]butyl]amino]-2-oxo-ethyl]amino]-2-oxo-ethyl]-2-[(2-mor-pholinoacetyl)amino]-propanamide] | 25% | 23% | 100% | −5.28 | >−4.00 | >−4.00
